Results on three compounds are retold here after patent US10501447B2, “Imidazolecarboxamides and their use as FAAH inhibitors” (BIAL-PORTELA & Ca, S.A., priority 2013, dated 2019).

One data set concerns the target T1, FAAH (Mus musculus, UniProt O08914).
T1 construct: A fragment of liver and brain without cerebellum were removed and put in plastic vials containing membrane buffer; from tissue; host or cells: brain (without cerebellum) and liver homogenates of male NMRI mice
T1 sequence (O08914 1-579): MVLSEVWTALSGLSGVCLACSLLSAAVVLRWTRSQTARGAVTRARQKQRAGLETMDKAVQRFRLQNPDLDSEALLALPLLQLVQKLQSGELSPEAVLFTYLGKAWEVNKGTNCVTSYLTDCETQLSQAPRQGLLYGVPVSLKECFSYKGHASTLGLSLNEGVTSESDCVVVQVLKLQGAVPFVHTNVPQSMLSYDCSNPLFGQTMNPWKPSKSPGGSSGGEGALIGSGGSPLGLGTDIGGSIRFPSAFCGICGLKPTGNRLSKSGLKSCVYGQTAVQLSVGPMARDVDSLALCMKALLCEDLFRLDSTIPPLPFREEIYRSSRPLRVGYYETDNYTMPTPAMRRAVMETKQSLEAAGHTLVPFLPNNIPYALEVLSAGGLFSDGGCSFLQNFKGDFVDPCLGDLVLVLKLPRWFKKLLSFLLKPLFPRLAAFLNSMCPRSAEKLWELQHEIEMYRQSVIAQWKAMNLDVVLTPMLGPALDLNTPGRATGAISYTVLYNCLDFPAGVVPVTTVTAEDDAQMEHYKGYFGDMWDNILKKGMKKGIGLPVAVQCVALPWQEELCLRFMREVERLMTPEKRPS
Kind of data set: FAAH activity in liver homogenate after oral dosing of mice. In kind it is in vivo. To be noted: for Peripheral Selectivity: FAAH activity in the liver divided by FAAH activity in the brain (3 mg/kg, 8 h, po), lower = peripherally more selective; for activity at 1 mg/kg / activity at 0.3 mg/kg / activity at 3 mg/kg / activity at 0.1 mg/kg / activity at 0.01 mg/kg / activity at 0.03 mg/kg: mouse, po; for activity at 3 mg/kg: liver homogenate, remaining activity vs controls, read-out: FAAH Activity (%) Lv h. How it is done: In vivo testing was performed according to the protocol described below. BRh (brain homogenate) indicates inhibition in central nervous tissue, in this case, brain, and LVh (liver homogenate) indicates inhibition in peripheral tissue, in this case, liver. The controls were the reaction mix minus the test compounds. Therefore, a low value for the test compound indicates a strong inhibitor.
The animals used for experiments were male NMRI mice (weighing 27-44 g) obtained from Interfauna Ibérica (Spain). Mice were kept 5 per cage, under controlled environmental conditions (12 hr light/dark cycle and room temperature 22±1° C.). Food and tap water were allowed ad libitum and the experiments were all carried out during daylight hours.
Animals were always fasted overnight before administration of compounds.
Animals were administered the appropriate dose of the compound of the invention via oral route (8 ml/kg; compound suspended in 0.5% carboxymethylcellulose (CMC) or solubilized in water) or vehicle (controls) using animal feeding stainless steel curve needles (Perfectum, U.S.A.). Fifteen minutes before sacrifice animal were anesthetized with pentobarbital 60 mg/kg administered intraperitoneally. A fragment of liver and brain without cerebellum were removed and put in plastic vials containing membrane buffer (3 mM MgCl2, 1 mM EDTA, 50 mM Tris HCl pH 7.4). Tissues were stored at −30° C. until analysis.
Anandamide [ethanolamine-1-^3H-] (40-60 Ci/mmol) was obtained from American Radiochemicals. All other reagents were obtained from Sigma-Aldrich. Optiphase Supermix was obtained from Perkin Elmer and activated charcoal was obtained from Sigma-Aldrich.
Tissues were thawed on ice and were homogenized in 10 volumes of membrane buffer (3 mM MgCl2, 1 mM EDTA, 50 mM Tris HCl pH 7.4) with either Potter-Elvejhem (brains—8 strokes at 500 rpm) or Heidolph Diax (livers—2 strokes at position 5 for 20 sec with 30 sec pauses).
Total protein in tissues was determined with the BioRad Protein Assay (BioRad) using a standard curve of BSA (50-250 μg/ml).
Reaction mix (total volume of 200 μl) contained: 2 μM AEA (2 μM AEA+5 nM ^3H-AEA), 0.1% fatty acid free BSA, 15 μg (brain) or 5 μg (liver) protein, in 1 mM EDTA, 10 mM Tris pH 7.6. After a 15 min pre-incubation period at 37° C., reaction was started by the addition of the substrate solution (cold AEA+radiolabelled AEA+BSA). Reaction was carried out for 10 min (brain) or 7 min (liver) before termination by the addition of 400 μl activated charcoal suspension (8 g charcoal in 32 ml 0.5 M HCl in continuous agitation). After a 30 min incubation period at room temperature with agitation, charcoal was sedimented by centrifugation in microfuge (10 min at 13000 rpm). 200 μl of the supernatant were added to 800 μl Optiphase Supermix scintillation cocktail previously distributed in 24-well plates. Counts per minute (cpm) were determined in a MicrobetaTriLux scintillation counter.
In each assay blanks (without protein) were prepared.
The percentage of remaining enzymatic activity was calculated with respect to controls and after blank subtraction.

One may read the melting point as the temperature, or range, at which the solid turns liquid. `CN(C(=O)n1cnc(-c2cccc(NS(N)(=O)=O)c2)c1)C1CCOCC1` [Compound 1, N-Methyl-4-(3-(sulfamoylamino)phenyl)-N-(tetrahydro-2H-pyran-4-yl)-1H-imidazole-1-carboxamide]: the melting point was 128 °C. In addition, the “Peripheral Selectivity” value on FAAH amounted to 0.042. The same compound gave an activity at 1 mg/kg on FAAH (1 h) of 8.5%. Moreover, at FAAH (8 h), the activity at 0.3 mg/kg came to 36.1% and the activity at 3 mg/kg came to 4.9%.
Turning to `CCC(=O)N1CCC(N(C)C(=O)n2cnc(-c3ccc(O)c(C)c3)c2)CC1` [Compound 2, 4-(4-Hydroxy-3-methylphenyl)-N-methyl-N-(1-propionylpiperidin-4-yl)-1H-imidazole-1-carboxamide], the melting point is 232 °C. Besides, the “Peripheral Selectivity” value on FAAH is recorded as 0.018. At FAAH (1 h), the activity at 0.1 mg/kg worked out at 21.9% and the activity at 1 mg/kg stood at 2.3%. Further, on FAAH (8 h), the activity at 0.01 mg/kg came out at 48.2%, the activity at 0.03 mg/kg is 42.9%, the activity at 0.1 mg/kg stood at 6.7% and the activity at 0.3 mg/kg turned out to be 5.6%. Also, the activity at 3 mg/kg at FAAH (8 h) turned out to be 1.5%.
Turning to `Cc1cc(-c2cn(C(=O)N(C)C3CCN(C(=O)C4CC4)CC3)cn2)ccc1O` [Compound 3, N-(1-(Cyclopropanecarbonyl)piperidin-4-yl)-4-(4-hydroxy-3-methylphenyl)-N-methyl-1H-imidazole-1-carboxamide], the melting point is 204 °C. At FAAH, the “Peripheral Selectivity” value stood at 0.020. Moreover, on FAAH (1 h), the activity at 0.1 mg/kg was found to be 37.9%. At FAAH (8 h), this compound registered an activity at 0.01 mg/kg of 56.3%, an activity at 0.03 mg/kg of 53%, an activity at 0.1 mg/kg of 10.7% and an activity at 0.3 mg/kg of 7.2%. For the same compound, the activity at 3 mg/kg on FAAH (8 h) came to 1.8%.
